Series [1] can be described thus: Quantification in postmortem blood and urine of dipyanone-positive forensic cases. Particulars: for concentration in blood, case #2: autoptic heart blood; for concentration in urine, case #2: autoptic urine.
On the set-up of series [2]: method as in Scott et al. 1947. Particulars: ref Scott et al. 1947; cited from earlier work.
Series [3] has as its system ten-donor-pooled cryopreserved human hepatocytes. The experiment in a line: Human hepatocyte incubation, LC-HRMS/MS metabolite identification. The class given is in vitro ADME. The following applies: for Hepatocytes peak area: LC-HRMS, positive ionisation mode, three hours of incubation with human hepatocytes, ND not detected; for portion of the total metabolites' signal: hepatocyte incubation, three hours. On the procedure: Dipyanone incubations with human hepatocytes were carried out as previously described (Carlier et al. [2022]; Taoussi et al. [2024]). Briefly, the hepatocytes were thawed in 50 mL of thawing medium at 37 °C. After centrifugation (100 g, 5 min), the supernatant was discarded and the pellet was resuspended in 50 mL of SWM at 37 °C. Following a second centrifugation (100 g, 5 min), the supernatant was removed, and the pellet was resuspended in 2 mL of SWM at 37 °C. Cell viability was determined using the trypan blue exclusion method, and the SWM volume was adjusted to reach a concentration of 2 × 10^6 cells/mL. In sterile 24-well culture plates, 250 µL hepatocyte suspension was gently mixed with 250 µL of dipyanone (20 µmol/L in SWM). The plates were incubated at 37 °C, and reactions were stopped after 0 or 3 h with 500 µL ice-cold acetonitrile, followed by centrifugation (15,000 g, 10 min). Negative (without SWM, hepatocytes, or dipyanone) and positive controls (diclofenac incubation) were incubated for 0 and 3 h under the same conditions to exclude nonspecific reactions and ensure proper metabolic activity. Incubates were stored at – 80° until analysis.
A 100 µL volume of incubate was mixed with 100 µL of acetonitrile and centrifuged for 10 min, 15,000 g at room temperature for protein precipitation (acetonitrile:SWM, 3:1, v/v). The supernatant was dried under a nitrogen stream at 37 °C. […] Again, the solution was centrifuged (10 min, 15,000 g) at room temperature. The resulting supernatant was transferred into vials with a glass insert, and 10 µL was injected into the chromatographic system for analysis.
The total chromatographic run time was 24 min.

The target of series [4] is human MOR membrane preparation (Homo sapiens, UniProt P35372). The experiment in a line: biochemical.
In series [5] the test system is mouse. Also on record: method as in Janssen and Jageneau 2011. The following applies: ref Janssen and Jageneau 2011; cited from earlier work.
Series [6] can be described thus: Metabolite identification in authentic postmortem urine samples by LC-HRMS/MS. The following applies: for Urine #1 peak area with β-gluc: postmortem urine case #1, after β-glucuronidase hydrolysis; for Urine #1 peak area with β-gluc / Urine #1 peak area / Urine #2 peak area with β-gluc / Urine #2 peak area: ND not detected; for Urine #1 peak area: postmortem urine case #1, no hydrolysis; for Urine #1 peak area / Urine #2 peak area: positive ionisation mode; for Urine #2 peak area with β-gluc: postmortem urine case #2, after β-glucuronidase hydrolysis; for portion of the total metabolites' signal in urine: both urine samples; for Urine #2 peak area: postmortem urine case #2, no hydrolysis.
Description: (§1) Samples were thawed at room temperature. A 100 µL aliquot was mixed with 200 µL of acetonitrile and centrifuged for 10 min at 15,000 g at room temperature. The supernatants were evaporated to dryness under nitrogen at 37 °C. The residues were reconstituted in 100 µL of a mixture containing 95% mobile phase A and 5% mobile phase B (v/v). After centrifugation under the same conditions, the supernatants were transferred to autosampler vials with glass inserts. A 10 µL volume was injected into the chromatographic system for analysis.
(§2) To investigate glucuronic acid conjugation, 100 µL of urine was mixed with 10 µL of 10 mol/L ammonium acetate (pH 5.0) and 100 µL of β-glucuronidase (5000 units), then incubated at 37 °C for 90 min. Subsequently, 400 µL of ice-cold acetonitrile was added to the mixtures, which were centrifuged for 10 min at 15,000 g at room temperature. The supernatants were evaporated to dryness under nitrogen at 37 °C and reconstituted in 100 µL of a mixture containing 95% mobile phase A and 5% mobile phase B (v/v). After centrifugation under the same conditions, the supernatants were transferred to autosampler vials with glass inserts. A 10 µL volume was injected into the chromatographic system for analysis.
(§3) The analyses were conducted by liquid chromatography-high-resolution tandem mass spectrometry (LC-HRMS/MS) with a DIONEX UltiMate 3000 liquid chromatographer coupled to a Q Exactive quadrupole-Orbitrap hybrid high-resolution mass spectrometer equipped with a heated electrospray ionisation (HESI) source from Thermo Scientific (Waltham, Massachusetts, USA).
(§4) The compounds were separated using a Kinetex Biphenyl column (150 × 2.1 mm, 2 μm) from Phenomenex (Torrance, California, USA). The separation was achieved using mobile phases A and B at a flow rate of 0.4 mL/min. The gradient elution program was as follows: 2% B was held for 2 min, then increased to 25% B over 12 min, followed by a rapid increase to 95% B within 2 min, and held for 4 min. Subsequently, the initial conditions were restored within 0.1 min and maintained for 3.9 min. The total chromatographic run time was 24 min. Throughout the analysis, the column oven temperature was maintained at 37 ± 1 °C, while the autosampler temperature was set to 10 ± 1 C.
(§5) All samples were analysed in both positive- and negative-ion modes, requiring two separate injections while maintaining the same HESI conditions. […] Prior to each analytical session, mass calibration was performed using certified calibration solutions in both positive and negative ion modes. To enhance accuracy, a lock mass list was compiled for positive- (m/z 279.0933, 144.9821, 146.9803) and negative ion modes (m/z 265.1479, 162.9824, 248.9604).
(§6) The mass spectrometer acquired from 1 to 20 min of the chromatographic run in full-scan HRMS (FullMS)/data-dependent MS/MS (ddMS^2) mode. The FullMS settings were as follows: range, m/z 100 to 650; resolution at full width at half maximum at m/z 200, 70,000; automatic gain control target, 1 × 10^6; and maximum injection time, 200 ms. For ddMS^2, the settings were: automatic gain control target, 2 × 10^5; maximum injection time, 64 ms; isolation window, m/z 1.2; resolution, 17,500; and stepped normalised collision energy, 40, 70, and 90 a.u. A maximum of five ddMS^2 scans were triggered for each FullMS scan, with a minimum intensity of 10^4 and dynamic exclusion of 2.0 s..
(§7) LC-HRMS/MS data were processed with Thermo Scientific Compound Discoverer in a single analysis.

Series [7] has as its target human KOR membrane preparation (Homo sapiens, UniProt P41145). Kind of series: HTRF-based GTP Gi binding assay, KOR. Format: biochemical. On the technique in general: Time-resolved FRET reads energy transfer from a long-lived donor to a nearby acceptor.
In another series the test system is µ-opioid receptor. The following applies: cited from earlier work.
Series [8] concerns mouse. Also on record: method as in Bockmühl and Ehrhart 1949. Particulars: mouse tail pinch test; ref Bockmühl and Ehrhart 1949; cited from earlier work.
For series [9] the following is noted: human, in vivo.
Description: as §1, §2, §3, §4, §5, §6, §7
The next series relates to mice. The following applies: ref Scott et al. 1946, 1947; cited from earlier work.
Series [10] concerns the target human DOR membrane preparation (Homo sapiens, UniProt P41143). Kind of series: HTRF-based GTP Gi binding assay, DOR. Format: biochemical.
For series [11] the following is noted: detected alongside other NSOs; ref Vandeputte et al. 2023; cited from earlier work.

Like-named read-outs stand apart in the source and are kept apart here.

Chain of human KOR membrane preparation (P41145 whole entry): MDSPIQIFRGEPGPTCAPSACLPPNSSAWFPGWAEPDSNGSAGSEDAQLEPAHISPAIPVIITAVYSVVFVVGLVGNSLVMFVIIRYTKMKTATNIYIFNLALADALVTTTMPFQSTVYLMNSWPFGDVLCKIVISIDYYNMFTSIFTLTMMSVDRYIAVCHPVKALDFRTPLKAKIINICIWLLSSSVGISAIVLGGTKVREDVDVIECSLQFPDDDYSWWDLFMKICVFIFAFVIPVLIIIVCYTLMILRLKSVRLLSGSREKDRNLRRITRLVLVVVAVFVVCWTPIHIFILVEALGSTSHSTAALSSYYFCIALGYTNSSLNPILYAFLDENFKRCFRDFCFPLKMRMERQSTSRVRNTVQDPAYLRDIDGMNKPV
Chain of human DOR membrane preparation (P41143 whole entry): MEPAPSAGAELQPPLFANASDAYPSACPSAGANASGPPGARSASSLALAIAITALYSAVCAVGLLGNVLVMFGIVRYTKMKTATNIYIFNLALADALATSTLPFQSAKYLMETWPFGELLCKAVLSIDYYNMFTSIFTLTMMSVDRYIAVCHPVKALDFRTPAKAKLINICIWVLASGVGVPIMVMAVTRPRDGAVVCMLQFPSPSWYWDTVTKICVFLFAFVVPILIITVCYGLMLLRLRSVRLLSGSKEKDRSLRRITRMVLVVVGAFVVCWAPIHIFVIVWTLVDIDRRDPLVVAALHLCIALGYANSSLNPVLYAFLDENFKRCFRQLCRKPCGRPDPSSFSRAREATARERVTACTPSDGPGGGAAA
Chain of human MOR membrane preparation (P35372 whole entry): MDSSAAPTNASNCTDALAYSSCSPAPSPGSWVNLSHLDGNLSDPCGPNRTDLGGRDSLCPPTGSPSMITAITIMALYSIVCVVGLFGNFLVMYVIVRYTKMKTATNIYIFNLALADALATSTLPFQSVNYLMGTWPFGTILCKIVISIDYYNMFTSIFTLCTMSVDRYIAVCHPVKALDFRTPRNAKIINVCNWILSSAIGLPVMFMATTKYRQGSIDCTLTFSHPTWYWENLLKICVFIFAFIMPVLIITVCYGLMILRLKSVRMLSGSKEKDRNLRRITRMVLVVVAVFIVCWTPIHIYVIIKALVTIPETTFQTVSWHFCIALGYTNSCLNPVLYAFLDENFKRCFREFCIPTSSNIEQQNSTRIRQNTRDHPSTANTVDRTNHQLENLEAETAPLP

Consider 2-fluoromethamphetamine, for which the “concentration in blood, case #2” value in series [1] turned out to be 96 ng/mL.

Regarding `CNC1(c2ccccc2F)CCCCC1=O` (centres unmarked) [2-fluoro-deschloroketamine], in [1], the “concentration in blood, case #2” value is recorded as < 1.0 ng/mL and the “concentration in urine, case #2” value is > 50 ng/mL.

Take `CC(N)Cc1ccccc1F` (centres unmarked) [2-fluoroamphetamine]: the “concentration in blood, case #2” value in series [1] came out at 24 ng/mL.

In the case of `CC[C@@H]1CN2CC[C@@]3(O)C(=Nc4cccc(OC)c43)[C@@H]2C[C@@H]1/C(=C\OC)C(=O)OC` [7-hydroxymitragynine], in [1], the “concentration in blood, case #2” value worked out at 4.7 ng/mL and the “concentration in urine, case #2” value is listed as > 200 ng/mL.

On to `CCC(=O)C(CC(C)N1CCCC1)(c1ccccc1)c1ccccc1` (centres unmarked) [Dipyanone, 4,4-diphenyl-6-(1’-pyrrolidinyl)-3-heptanone], for which, in [2], the analgesic threshold was 1 to 2 mg/kg. In addition, the Hepatocytes peak area in [3] was 7.7 × 10^8. For the same compound, the “LC-HRMS/MS peak area after incubation relative to its original value” in [3] (after three hours of incubation, compared to the controls) was “approximately one-sixth”. Besides, the EC50 – broadly, the concentration that produces a half-maximal response – in series [4] was 0.0968 µM; in series [7] it was 0.38 µM; at µ-opioid receptor (read-out: EC50 at MOR, β-arrestin2 recruitment assay) it was 0.0399 µM; in series [10], 1.07 µM. In addition, the “median effective dose, mouse hot plate assay” value in the series with mouse [5] is 6.82 mg/kg. The “Urine #1 peak area with β-gluc” value in series [6] is given as 1.3 × 10^10. Further, the “Urine #1 peak area” value in series [6] is on record as 1.1 × 10^10. Also, in [6], the “Urine #2 peak area with β-gluc” value is given as 8.0 × 10^9. Also, the Emax (commonly the maximal effect, on the per cent scale that the assay sets) in [7] (normalised to U-50488, mean (95% CI), n = 3, read-out: KOR Emax relative to U-50488) worked out at 13%; in series [10] (normalised to SNC-80, mean (95% CI), n = 3, read-out: DOR Emax relative to SNC-80), 56%. Besides, the “efficacy (Emax) compared to hydromorphone at the µ-opioid receptor” value in the series on µ-opioid receptor is 155%. The “analgesic properties relative to pethidine” value with mouse [8] is 5–10 times. In addition, the “Urine #2 peak area” value in [9] is 1.3 × 10^10. The LD50 in mice with mice is ~ 17 mg/kg. Also, the “concentration in urine, four dipyanone-related fatalities” value in series [1] (Germany 2022 and 2023, own unpublished data) fell in the range of 80 to 5500 ng/mL. In series [1], the “concentration in blood, case #2” value was 80 ng/mL. The “concentration in blood, case #1” value in series [1] (postmortem femoral blood) was 720 ng/mL. In addition, the “blood concentration, postmortem case in the USA” value in series [11] was 370 ng/mL.

Consider `CC=C1N(CCCCO)C(C)CC1(c1ccccc1)c1ccccc1` (centres unmarked) [M12, 4’-[2-ethylidene-5-methyl-3,3-diphenylpyrrolidin-1-yl]butan-1’-ol], for which, in [3], the Hepatocytes peak area is 1.8 × 10^7 and the “portion of the total metabolites' signal” value is 50%. Besides, in [6], the “portion of the total metabolites' signal in urine” value is recorded as 23–26%, the “Urine #1 peak area with β-gluc” value is on record as 3.4 × 10^9, the “Urine #1 peak area” value is on record as 2.3 × 10^9 and the “Urine #2 peak area with β-gluc” value is 1.7 × 10^9. Besides, the “Urine #2 peak area” value in series [6] is 2.1 × 10^9.

Take `CC=C1N(CCCC(=O)O)C(C)CC1(c1ccccc1)c1ccccc1` (centres unmarked) [M13, 4’-[2-ethylidene-5-methyl-3,3-diphenylpyrrolidin-1-yl]butanoic acid]: in series [3], the Hepatocytes peak area is on record as 9.5 × 10^6 and the “portion of the total metabolites' signal” value is 27%. Also, in series [6], the “portion of the total metabolites' signal in urine” value is 61%, the “Urine #1 peak area with β-gluc” value is 5.7 × 10^9, the “Urine #1 peak area” value is on record as 5.4 × 10^9 and the “Urine #2 peak area with β-gluc” value is given as 3.3 × 10^9. The “Urine #2 peak area” value in series [6] is on record as 5.6 × 10^9.

Consider `CCNC1(c2ccccc2)CCCCC1=O` (centres unmarked) [deschloro-N-ethylketamine], for which, in series [1], the “concentration in blood, case #2” value was found to be 46 ng/mL and the “concentration in urine, case #2” value was > 50 ng/mL.

`CNC1(c2ccccc2)CCCCC1=O` (centres unmarked) [deschloroketamine]: in [1], the “concentration in blood, case #2” value stood at 1.0 ng/mL and the “concentration in urine, case #2” value is on record as 23 ng/mL.

For `CCC(=O)C(CC(C)N(C)C)(c1ccccc1)c1ccccc1` (centres unmarked) [methadone, reference compound], the analgesic threshold in series [2] is 1 to 2 mg/kg. The “median effective dose, mouse hot plate assay” value with mouse [5] was 5.18 mg/kg. Also, the LD50 in mice in the series on mice is on record as ~ 17 mg/kg.

As to mitragynine, in series [1], the “concentration in blood, case #2” value turned out to be 160 ng/mL and the “concentration in urine, case #2” value was > 200 ng/mL.

The values above are taken from publication PMC12185669 (Archives of Toxicology, 2025).
